Test system: Rat1 fibroblast cells
Test: Transfection efficiency with pCMV-LacZ DNA, β-galactosidase activity of cell lysate (ONPG assay)
Format: cell-based, rat
Conditions: for transfection efficiency alone or in combination with PEI, compared with PEI alone / transfection efficiency when combined to PEI as compared to PEI alone: PEI N/P=10; for transfection efficiency alone or in combination with PEI, compared with PEI alone: lipid 2 mg/ml; for transfection efficiency when combined to PEI as compared to PEI alone: 0.25 to 7.5 μl lipid per ug DNA
Protocol: Transfection complexes were prepared as described by Boussif et al. (Boussif et al., 1995).
Lipid was diluted in 100 μl of growth media without serum and antibiotics. The solutions were immediately homogenized and left at room temperature for 5-10 min. […] The combined material was vortexed and incubated at room temperature for 20 min before addition to the cells.
Rat1 fibroblast cells were maintained in modified Eagle medium (MEM) (Life Technologies) and VSMC cells were maintained in Dulbecco's modified Eagle medium (DMEM) (Life Technologies). Both cell lines were cultured in media containing 10% heat inactivated calf serum (Life Technologies), 1% penicillin-streptomycin, and L-glutamine in 10 cm tissue culture flasks at 37° C. in a humidified 5% CO2 atmosphere. Cells were grown to 80% confluency, detached with trypsin-EDTA and replated in 2 new flasks 18-24 h before transfection. Two to three hours before transfections, cells were again detached, and seeded at a density of 5×10^4 cells per well in 24-multiwell tissue culture plates.
At the time of transfection, cells were supplemented with 200-400 μl of fresh complete media containing 10% calf serum and antibiotics unless otherwise specified. Transfection solution was added to each well and the plates were incubated at 37° C. in a humidified atmosphere containing 5% CO2. After 6 h of transfection, the transfecting solution was removed, cells were washed once with appropriate cell culture medium and then covered with 1 ml of the same medium. Cells were maintained for an additional 36-48 h.
Following transfections with pCMV-LacZ DNA (36-48 h later), cells were washed twice with ice-cold 0.1 M phosphate buffered saline (PBS) and lysed with 250 μl lysis buffer (10 mM Tris-HCl pH 7.5, 1 mM EDTA, 100 mM NaCl, 5 mM MgCl2 and 1% Nonidet P40™ (Boehringer Mannheim)). Lysates were centrifuged 15 000×g at 4° C. for 5 min. The supernatant was collected and its protein concentration was determined using the BCA protein assay kit (PIERCE) using the microwell protocol according to the manufacturer's specifications. β-galactosidase assay was performed as described by Eustice et al. (Eustice et al., 1991) Briefly, β-galactosidase activity was measured in 240 μl assay mixture containing 80 mM sodium phosphate buffer, pH 7.3, 102 mM 2-mercaptoethanol, 9.0 mM MgCl2 and 8.0 mM ONPG (o-nitrophenyl-β-D-galactopyranoside, SIGMA). Samples, (1-40 μl) of each lysate were assayed in the reaction mixture at 37° C. for 30 min in 96-well plates. Absorbance was measured at 405 nm. E. coli β-galactosidase (Roche) was used to generate a standard curve.

Row | Molecule | transfection efficiency alone or in combination with PEI, compared with PEI alone (1 μg DNA) | transfection efficiency when combined to PEI as compared to PEI alone (1 μg DNA) | also measured
1 | CCCCCCCC/C=C\CCCCCCCC(=O)OCC(CN(C)C)OC(=O)CCCCCCC/C=C\CCCCCCCC (stereo not drawn) [1,2-dioleoyl-3-dimethylammonium-propane] | did not display, alone or in combination with PEI, transfection efficiencies that were better or even equal to that obtained with PEI alone |  | 
2 | CCCCCCCC/C=C\CCCCCCCC(=O)OCC(C[N+](C)(C)C)OC(=O)CCCCCCC/C=C\CCCCCCCC (stereo not drawn) [1,2-dioleoyl-3-trimethylammonium-propane] | did not display, alone or in combination with PEI, transfection efficiencies that were better or even equal to that obtained with PEI alone |  | 
3 | CCCCCCCC/C=C\CCCCCCCC(=O)OC[C@@H](COP(=O)(OCC)OCC[N+](C)(C)C)OC(=O)CCCCCCC/C=C\CCCCCCCC (stereo partly drawn) [1,2-dioleoyl-sn-glycero-3-ethylphosphocholine] | did not display, alone or in combination with PEI, transfection efficiencies that were better or even equal to that obtained with PEI alone |  | 
4 | CCCCCCCC/C=C\CCCCCCCC(=O)OC[C@H](COP(=O)([O-])OCC[N+](C)(C)C)OC(=O)CCCCCCC/C=C\CCCCCCCC [DOPC, 1,2-Dioleoly-sn-Glycero-3-Phosphocholine] |  | enhance transfection efficiency | 
5 | CCCCCCCC/C=C\CCCCCCCC(=O)OC[C@H](COP(=O)(O)OCCN)OC(=O)CCCCCCC/C=C\CCCCCCCC [DOPE, 1,2-Dioleoyl-sn-Glycero-3-Phosphoethanolamine] |  | enhance transfection efficiency | β-galactosidase activity when combined to DNA alone (0.25 to 7.5 μl per ug DNA, without PEI): no β-galactosidase activity; increase of transfection efficiency over PEI alone (combined with PEI (N/P=10), 1 μg DNA): ≤ 26 fold
6 | CC(C)CCCC(C)CCCC(C)CCCC(C)CC(=O)OC[C@H](COP(=O)(O)OCCN)OC(=O)CC(C)CCCC(C)CCCC(C)CCCC(C)C (stereo partly drawn) [DPPE, 1,2-Diphytanoyl-sn-Glycero-3-Phosphoethanolamine] |  | enhance transfection efficiency | 
7 | L-α-phosphatidylcholine | did not display, alone or in combination with PEI, transfection efficiencies that were better or even equal to that obtained with PEI alone |  | 

From patent US20040234586A1, “Compositions and methods for enhancing nucleic acid transfer into cells” (priority 2001, published 2004)
